{
  "source": "patent US11767330B2",
  "about": "“Citrate salt, pharmaceutical compositions, and methods of making and using the same” (Foghorn Therapeutics Inc., priority 2021, dated 2023)",
  "experiment": "Tolerability by % body weight change (Example 11)",
  "format": "in vivo",
  "conditions": "1 mg/kg, i.p., daily, 3 weeks",
  "procedure": "Method: NOD SCID mice (Beijing Anikeeper Biotech, Beijing) were inoculated subcutaneously on the right flank with the single cell suspension of SYO-1 human biphasic synovial sarcoma tumor cells (5×106) in 100 μL Dulbecco's Modified Eagle Medium (DMEM) with 10% fetal bovine serum (FBS). The mice were randomized into either control group [10% dimethyl sulfoxide (DMSO), 40% polyethylene glycol (PEG400) and 50% water], or treatment group D1 when the mean tumor size reached about 117 mm^3. Mice were dosed daily through intraperitoneal (i.p.) route over the course of 3 weeks. All dose volumes were adjusted by body weights in terms of mg/kg.",
  "data": [
    {"molecule": "COc1cc(-c2cn(C)c(=O)c3cnc(N4CCC4)cc23)cc(OC)c1CN1CCC(CN2CCC3(CC2)CN(c2ccc4c(c2)C(=O)N(C2CCC(=O)NC2=O)C4)C3)CC1", "note": "(racemic) [Compound D1, 3-[6-(7-[[1-([4-[6-(azetidin-1-yl)-2-methyl-1-oxo-2,7-naphthyridin-4-yl]-2,6-dimethoxyphenyl]methyl)piperidin-4-yl]methyl]-2,7-diazaspiro[3.5]nonan-2-yl)-1-oxo-3H-isoindol-2-yl]piperidine-2,6-dione]", "values": [
      {"measurement": "tolerability based on % body weight change", "result": "well tolerated"}
    ]}
  ]
}
